Data set [1] deals with T1, Neuropeptides B/W receptor type 1 (Homo sapiens, UniProt P48145).
T1 sequence (P48145 whole entry): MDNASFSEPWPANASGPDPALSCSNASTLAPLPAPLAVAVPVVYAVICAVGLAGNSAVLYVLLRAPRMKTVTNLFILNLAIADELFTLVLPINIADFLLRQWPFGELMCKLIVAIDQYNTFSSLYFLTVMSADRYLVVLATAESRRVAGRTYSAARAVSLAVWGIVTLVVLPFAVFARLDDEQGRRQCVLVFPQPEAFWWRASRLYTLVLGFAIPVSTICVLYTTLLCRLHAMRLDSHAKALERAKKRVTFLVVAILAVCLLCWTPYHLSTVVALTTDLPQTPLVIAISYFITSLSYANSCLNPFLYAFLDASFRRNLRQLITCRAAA
The data set can be described thus: (§1) Agonist activity at human NPBWR1 expressed in CHO-RD-HGA16 cells measured by calcium mobilization assay. It is filed as functional, cell-based. On the technique in general: Calcium assays in cells follow changes in intracellular calcium, usually with a dye or a luminescent sensor.

The target in data set [2] is T2, Neuropeptides B/W receptor type 1 (Homo sapiens) (UniProt P48145).
T2 sequence (whole entry): T1 sequence (P48145 whole entry)
The data set can be described thus: Antagonist activity at human NPBWR1 expressed in CHO-RD-HGA16 cells at 10 uM measured by calcium mobilization assay relative to control. The arrangement: scale not given: the % may be the effect or the level left. Conditions: filed as antagonist. The data set is classed as functional, cell-based.

Data set [3] concerns the target T2, Neuropeptides B/W receptor type 1 (Homo sapiens). The data set can be described thus: Agonist activity at human NPBWR1 expressed in CHO-RD-HGA16 cells measured by calcium mobilization assay relative to control. The data set is classed as functional, cell-based.
The nature of data set [4]: Metabolic stability in male Sprague-Dawley rat plasma assessed as compound remaining at 1 uM measured after […] by LC-MS/MS analysis. To be noted: read-out: Stability. The data set is classed as ADME, cell-free.
Data set [5] addresses T1, Neuropeptides B/W receptor type 1. The data set can be described thus: Antagonist activity at human NPBWR1 expressed in CHO-RD-HGA16 cells measured by calcium mobilization assay. The data set is classed as functional, cell-based.
In data set [6] the target is T2, Neuropeptides B/W receptor type 1 (Homo sapiens). The description is as §1. To be noted: filed as agonist. The data set is classed as functional, cell-based.
In data set [7] the target is T1, Neuropeptides B/W receptor type 1. Put plainly: Agonist activity at human NPBWR1 expressed in CHO cells measured by LANCE Ultra cAMP kit-based TR-FRET assay. The data set is classed as functional, cell-based. For orientation: In TR-FRET formats the signal depends on donor and acceptor labels being close together.
Data set [8] in a line: Metabolic stability in male Sprague-Dawley rat plasma assessed as half-life at 1 uM measured after 240 mins by LC-MS/MS analysis. The data set is classed as ADME, cell-free.

Non-standard residues stand in square brackets, D forms with d. Residues, ends and D or L forms follow the SMILES beside them. *: point of attachment. Propanoyl(3-indol-3-yl) = O=C(CCc1c[nH]c2ccccc12)*; Trp(1-Me) = Cn1cc(C[C@H](N)C(=O)O)c2ccccc21; Tle = CC(C)(C)[C@H](N)C(=O)O; Ava = NCCCCC(=O)O

For orientation: EC50 means the concentration giving half of the maximal effect. Consider `CC(C)C[C@H](NC(=O)CNC(=O)[C@H](C)NC(=O)[C@H](C)NC(=O)[C@H](CCCNC(=N)N)NC(=O)CNC(=O)CCCCNC(=O)CCCCNC(=O)CCCCNC(=O)[C@H](C)NC(=O)[C@H](Cc1ccc(O)cc1)NC(=O)[C@@H](N)Cc1c[nH]c2ccccc12)C(=O)N[C@@H](CO)C(=O)N[C@@H](CO)C(N)=O` (H-WYA[Ava][Ava][Ava]GRAAGLSS-NH2), for which, in data set [1], the EC50 was found to be 478 nM.
Regarding `CC(C)C[C@H](NC(=O)[C@H](CC(C)C)NC(=O)CNC(=O)[C@H](C)NC(=O)[C@H](C)NC(=O)[C@H](CCCNC(=N)N)NC(=O)CNC(=O)CCCCNC(=O)CCCCNC(=O)CCCCNC(=O)[C@H](CCCCN)NC(=O)[C@H](NC(=O)[C@@H](N)Cc1c[nH]c2ccccc12)[C@@H](C)O)C(N)=O`, in data set [2], the Activity came to 81%. Besides, the EC50 in data set [1] is more than 10000 nM.
The Emax is the greatest response seen or fitted, relative to the assay's reference. As to `CC(C)C[C@H](NC(=O)[C@@H](CC(C)C)NC(=O)CNC(=O)[C@H](C)NC(=O)[C@H](C)NC(=O)[C@H](CCCNC(=N)N)NC(=O)CCCCNC(=O)CCCCNC(=O)CCCCNC(=O)[C@H](CCCCN)NC(=O)[C@H](Cc1ccc(O)cc1)NC(=O)[C@@H](N)Cc1c[nH]c2ccccc12)C(N)=O`, the Emax in data set [3] worked out at 38%. Further, the EC50 in data set [1] stood at 530 nM.
Consider `CC(C)C[C@H](NC(=O)CNC(=O)[C@H](CO)NC(=O)[C@H](CC(C)C)NC(=O)[C@H](CC(C)C)NC(=O)CNC(=O)[C@H](C)NC(=O)[C@H](C)NC(=O)[C@H](CCCNC(=N)N)NC(=O)CNC(=O)[C@@H](NC(=O)[C@H](CO)NC(=O)[C@H](Cc1ccc(O)cc1)NC(=O)[C@H](CO)NC(=O)[C@H](CO)NC(=O)[C@H](Cc1cnc[nH]1)NC(=O)CNC(=O)[C@H](C)NC(=O)[C@H](C)NC(=O)[C@@H]1CCCN1C(=O)[C@H](CCCCN)NC(=O)[C@H](Cc1ccc(O)cc1)NC(=O)[C@@H](N)Cc1c[nH]c2ccccc12)C(C)C)C(N)=O`, for which the remaining at 0.25 h, 1 µM in data set [4] was 48%.
As a reminder, the IC50 is the concentration needed to halve the response being measured. Consider `CC(C)C[C@H](NC(=O)[C@H](CC(C)C)NC(=O)CNC(=O)[C@H](C)NC(=O)[C@H](C)NC(=O)[C@H](CCCNC(=N)N)NC(=O)CNC(=O)CCCCNC(=O)CCCCNC(=O)CCCCNC(=O)[C@H](CCCCN)NC(=O)[C@H](Cc1ccc(O)cc1)NC(=O)[C@H](Cc1c[nH]c2ccccc12)NC(=O)[C@@H](N)Cc1cn(C)c2ccccc12)C(N)=O` (H-[Trp(1-Me)]WYK[Ava][Ava][Ava]GRAAGLL-NH2), for which the EC50 in data set [1] is more than 10000 nM. Also, the IC50 in data set [5] amounted to 545 nM.
Regarding `CC(C)C[C@H](NC(=O)CNC(=O)[C@H](C)NC(=O)[C@H](C)NC(=O)[C@H](C)NC(=O)CNC(=O)CCCCNC(=O)CCCCNC(=O)CCCCNC(=O)[C@H](CCCCN)NC(=O)[C@H](Cc1ccc(O)cc1)NC(=O)[C@@H](N)Cc1c[nH]c2ccccc12)C(=O)N[C@@H](CO)C(=O)N[C@@H](CO)C(N)=O` (H-WYK[Ava][Ava][Ava]GAAAGLSS-NH2), in data set [1], the EC50 is more than 10000 nM.
The EC80 is the concentration needed for an effect of 80%. As to `CSCC[C@H](NC(=O)[C@H](CC(C)C)NC(=O)[C@H](CC(C)C)NC(=O)CNC(=O)[C@H](C)NC(=O)[C@H](C)NC(=O)[C@H](CCCNC(=N)N)NC(=O)CNC(=O)[C@@H](NC(=O)[C@@H](NC(=O)[C@H](Cc1cnc[nH]1)NC(=O)[C@H](Cc1ccc(O)cc1)NC(=O)[C@H](CCCNC(=N)N)NC(=O)[C@@H]1CCCN1C(=O)[C@H](CO)NC(=O)[C@H](C)NC(=O)[C@@H](NC(=O)[C@H](Cc1cnc[nH]1)NC(=O)[C@H](CCCCN)NC(=O)[C@H](Cc1ccc(O)cc1)NC(=O)[C@@H](N)Cc1c[nH]c2ccccc12)C(C)C)[C@@H](C)O)C(C)C)C(=O)NCC(=O)N[C@@H](CC(C)C)C(N)=O`, the Emax in data set [3] (filed as agonist) was determined as 100%. Further, in data set [6], the EC80 was 20 nM.
For `CC(C)C[C@H](NC(=O)[C@H](CC(C)C)NC(=O)CNC(=O)[C@H](C)NC(=O)[C@@H](C)NC(=O)[C@H](CCCNC(=N)N)NC(=O)CCCCNC(=O)CCCCNC(=O)CCCCNC(=O)[C@H](CCCCN)NC(=O)[C@H](Cc1ccc(O)cc1)NC(=O)[C@@H](N)Cc1c[nH]c2ccccc12)C(N)=O`, the Emax in data set [3] is 33%. Moreover, in data set [1], the EC50 was 578 nM.
For `CC(C)C[C@H](NC(=O)[C@H](CC(C)C)NC(=O)CNC(=O)[C@H](C)NC(=O)[C@H](C)NC(=O)[C@@H](CCCNC(=N)N)NC(=O)CCCCNC(=O)CCCCNC(=O)CCCCNC(=O)[C@H](CCCCN)NC(=O)[C@H](Cc1ccc(O)cc1)NC(=O)[C@@H](N)Cc1c[nH]c2ccccc12)C(N)=O`, in data set [1], the EC50 was more than 10000 nM.
With `CC(C)C[C@H](NC(=O)CNC(=O)[C@H](C)NC(=O)[C@H](C)NC(=O)[C@H](CCCNC(=N)N)NC(=O)CNC(=O)CCCCNC(=O)CCCCNC(=O)CCCCNC(=O)[C@H](CCCCN)NC(=O)[C@@H](NC(=O)[C@@H](N)Cc1c[nH]c2ccccc12)[C@@H](C)O)C(=O)N[C@H](C(N)=O)C(C)(C)C` (H-WTK[Ava][Ava][Ava]GRAAGL[Tle]-NH2), the EC50 in data set [1] was 479 nM.
Take `CC(C)C[C@H](NC(=O)CNC(=O)[C@H](C)NC(=O)[C@H](C)NC(=O)[C@H](CCCNC(=N)N)NC(=O)CCCCNC(=O)CCCCNC(=O)CCCCNC(=O)[C@H](CCCCN)NC(=O)[C@H](Cc1ccc(O)cc1)NC(=O)[C@@H](N)Cc1c[nH]c2ccccc12)C(=O)N[C@H](CC(C)C)C(N)=O`: the Emax in data set [3] (filed as agonist) came out at 57%. For the same compound, the EC50 in data set [1] turned out to be 463 nM.
As a reminder, the half-life is the time in which the quantity being followed falls by half. As for `CC(C)C[C@H](NC(=O)[C@H](CC(C)C)NC(=O)CNC(=O)[C@H](C)NC(=O)[C@H](C)NC(=O)[C@H](CCCNC(=N)N)NC(=O)CNC(=O)CCCCNC(=O)CCCCNC(=O)CCCCNC(=O)[C@H](CCCCN)NC(=O)[C@H](Cc1ccc(O)cc1)NC(=O)[C@H](Cc1c[nH]c2ccccc12)NC(=O)CCc1c[nH]c2ccccc12)C(N)=O` ({Propanoyl(3-indol-3-yl)}-WYK[Ava][Ava][Ava]GRAAGLL-NH2), the EC50 in data set [7] was found to be 2.7 nM; in data set [1], 8 nM. In addition, in data set [8], the half-life at 1 µM came out at 39.1 min. The remaining at 0.25 h, 1 µM in data set [4] is 86%.
Take `CCCCCCCCCCCCCCCC(=O)NCCCC[C@H](NC(=O)[C@H](CCCCN)NC(=O)[C@H](CCCCN)NC(=O)[C@H](CCCCN)NC(=O)[C@H](Cc1ccc(O)cc1)NC(=O)[C@@H](N)Cc1c[nH]c2ccccc12)C(=O)N[C@@H](CCCCN)C(=O)NCCCCC(=O)NCC(=O)N[C@@H](CCCNC(=N)N)C(=O)N[C@@H](C)C(=O)N[C@@H](C)C(=O)NCC(=O)N[C@@H](CC(C)C)C(=O)N[C@@H](CC(C)C)C(N)=O`: the EC50 in data set [1] (cho-rd-hga16) was more than 10000 nM. Besides, in data set [5] (cho-rd-hga16), the IC50 came out at 406 nM.
As to `CCCCCCCCCCCCCCCC(=O)NCCCC[C@@H](NC(=O)[C@H](CCCCN)NC(=O)[C@H](CCCCN)NC(=O)[C@H](CCCCN)NC(=O)[C@H](Cc1ccc(O)cc1)NC(=O)[C@@H](N)Cc1c[nH]c2ccccc12)C(=O)N[C@@H](CCCCN)C(=O)NCCCCC(=O)NCC(=O)N[C@@H](CCCNC(=N)N)C(=O)N[C@@H](C)C(=O)N[C@@H](C)C(=O)NCC(=O)N[C@@H](CC(C)C)C(=O)N[C@@H](CC(C)C)C(N)=O`, the Activity in data set [2] worked out at 95%.
As to `CC(C)C[C@H](NC(=O)CNC(=O)[C@H](C)NC(=O)[C@H](C)NC(=O)[C@H](CCCNC(=N)N)NC(=O)CNC(=O)CCCCNC(=O)CCCCNC(=O)CCCCNC(=O)[C@H](C)NC(=O)[C@@H](N)Cc1c[nH]c2ccccc12)C(=O)N[C@@H](CC(C)C)C(=O)N[C@@H](CO)C(N)=O` (H-WA[Ava][Ava][Ava]GRAAGLLS-NH2), the Activity in data set [2] stood at 95%. For the same compound, the EC50 in data set [1] is more than 10000 nM. Besides, in data set [5], the IC50 was 840 nM.
